According to US11498899B2, “Nitrone herbicides” (FMC Corporation, priority 2016, dated 2022):

Legend:
[1] = test system: pigweed (Amaranthus retroflexus); assay: Test A preemergence, visual injury rating 0-100; type: in vivo
[2] = test system: ryegrass, Italian (Italian ryegrass, Lolium multiflorum); assay: Test A preemergence, visual injury rating 0-100; type: in vivo
[3] = test system: foxtail, green (green foxtail, Setaria viridis); assay: Test A preemergence, visual injury rating 0-100; type: in vivo
[4] = test system: ragweed (common ragweed, Ambrosia elatior); assay: Test A preemergence, visual injury rating 0-100; type: in vivo
[5] = test system: kochia (Kochia scoparia); assay: Test A preemergence, visual injury rating 0-100; type: in vivo
[6] = test system: barnyardgrass (Echinochloa crus-galli); assay: Test B flooded paddy test, visual rating 0-100; conditions: Flood, 250 g ai/ha, applied to paddy water, rated after 13 to 15 days
[7] = test system: barnyardgrass (Echinochloa crus-galli); assay: Test A postemergence, visual injury rating 0-100; type: in vivo; conditions: 0 to 100 scale
[8] = test system: corn (Zea mays); assay: Test A postemergence, visual injury rating 0-100; type: in vivo; conditions: 0 to 100 scale
[9] = test system: galium (catchweed bedstraw, Galium aparine); assay: Test A postemergence, visual injury rating 0-100; type: in vivo; conditions: 0 to 100 scale
[10] = test system: pigweed (Amaranthus retroflexus); assay: Test A postemergence, visual injury rating 0-100; type: in vivo; conditions: 0 to 100 scale
[11] = test system: ryegrass, Italian (Italian ryegrass, Lolium multiflorum); assay: Test A postemergence, visual injury rating 0-100; type: in vivo; conditions: 0 to 100 scale
[12] = test system: blackgrass (Alopecurus myosuroides); assay: Test A postemergence, visual injury rating 0-100; type: in vivo; conditions: 0 to 100 scale
[13] = test system: foxtail, green (green foxtail, Setaria viridis); assay: Test A postemergence, visual injury rating 0-100; type: in vivo; conditions: 0 to 100 scale
[14] = test system: ragweed (common ragweed, Ambrosia elatior); assay: Test A postemergence, visual injury rating 0-100; type: in vivo; conditions: 0 to 100 scale
[15] = test system: wheat (Triticum aestivum); assay: Test A postemergence, visual injury rating 0-100; type: in vivo; conditions: 0 to 100 scale
[16] = test system: kochia (Kochia scoparia); assay: Test A postemergence, visual injury rating 0-100; type: in vivo; conditions: 0 to 100 scale
[17] = test system: ducksalad (Heteranthera limosa); assay: Test B flooded paddy test, visual rating 0-100; conditions: Flood, 250 g ai/ha, applied to paddy water, rated after 13 to 15 days
[18] = test system: rice (Oryza sativa); assay: Test B flooded paddy test, visual rating 0-100 (0 no effect, 100 complete control); conditions: Flood, 250 g ai/ha, applied to paddy water, rated after 13 to 15 days
[19] = test system: barnyardgrass (Echinochloa crus-galli); assay: Test A preemergence, visual injury rating 0-100 (0 no effect, 100 complete control); type: in vivo
[20] = 31 g ai/ha, 0 to 100 scale (0 no effect, 100 complete control), approx. 10 days

CC1=[N+]([O-])[C@H](C(=O)Nc2cccc(F)c2F)[C@@H](c2ccc(C(F)(F)F)cc2)C1 [Compound 30, (2S,3R)—N-(2,3-difluorophenyl)-3,4-dihydro-5-methyl-3-[4-(trifluoromethyl)phenyl]-2H-pyrrole-2-carboxamide 1-oxide]
60: Blackgrass plant response rating ([12]; 125 g ai/ha)
113 to 117 °C: melting point
20: Pigweed plant response rating ([10]; 31 g ai/ha) | Ryegrass, Italian plant response rating ([11]; 31 g ai/ha)
100: Foxtail, Green plant response rating [3, 20] | Foxtail, Green plant response rating (0 to 100 scale) ([3]; 125 g ai/ha) | Ducksalad plant response rating (0 to 100 scale) [17] | Barnyardgrass plant response rating [19, 20] | Barnyardgrass plant response rating (0 to 100 scale) ([19]; 125 g ai/ha)
50: Galium plant response rating ([9]; 31 g ai/ha) | Galium plant response rating ([9]; 125 g ai/ha) | Ryegrass, Italian plant response rating ([11]; 125 g ai/ha) | Wheat plant response rating ([15]; 125 g ai/ha) | Rice plant response rating (0 to 100 scale) [18]
85: Barnyardgrass plant response rating (0 to 100 scale) [6]
30: Ragweed plant response rating [4, 20] | Barnyardgrass plant response rating ([7]; 31 g ai/ha) | Pigweed plant response rating ([10]; 125 g ai/ha) | Blackgrass plant response rating ([12]; 31 g ai/ha) | Foxtail, Green plant response rating ([13]; 31 g ai/ha)
40: Ragweed plant response rating ([14]; 125 g ai/ha) | Wheat plant response rating ([15]; 31 g ai/ha)
90: Pigweed plant response rating (0 to 100 scale) ([1]; 125 g ai/ha) | Ryegrass, Italian plant response rating (0 to 100 scale) ([2]; 125 g ai/ha) | Ragweed plant response rating (0 to 100 scale) ([4]; 125 g ai/ha)
80: Kochia plant response rating (0 to 100 scale) ([5]; 125 g ai/ha) | Foxtail, Green plant response rating ([13]; 125 g ai/ha)
70: Barnyardgrass plant response rating ([7]; 125 g ai/ha) | Corn plant response rating ([8]; 125 g ai/ha)
0: Pigweed plant response rating [1, 20] | Ryegrass, Italian plant response rating [2, 20] | Kochia plant response rating [5, 20] | Corn plant response rating ([8]; 31 g ai/ha) | Ragweed plant response rating ([14]; 31 g ai/ha) | Kochia plant response rating ([16]; 31 g ai/ha) | Kochia plant response rating ([16]; 125 g ai/ha)
